Source: ChEMBL document CHEMBL3352589, “The use of spirocyclic scaffolds in drug discovery” (Bioorg Med Chem Lett, 2014)

Target: 5-hydroxytryptamine receptor 6 (Homo sapiens, UniProt P50406)
Assay: Antagonist activity at 5-HT6 receptor (unknown origin)

Chain of 5-hydroxytryptamine receptor 6 (P50406 whole entry): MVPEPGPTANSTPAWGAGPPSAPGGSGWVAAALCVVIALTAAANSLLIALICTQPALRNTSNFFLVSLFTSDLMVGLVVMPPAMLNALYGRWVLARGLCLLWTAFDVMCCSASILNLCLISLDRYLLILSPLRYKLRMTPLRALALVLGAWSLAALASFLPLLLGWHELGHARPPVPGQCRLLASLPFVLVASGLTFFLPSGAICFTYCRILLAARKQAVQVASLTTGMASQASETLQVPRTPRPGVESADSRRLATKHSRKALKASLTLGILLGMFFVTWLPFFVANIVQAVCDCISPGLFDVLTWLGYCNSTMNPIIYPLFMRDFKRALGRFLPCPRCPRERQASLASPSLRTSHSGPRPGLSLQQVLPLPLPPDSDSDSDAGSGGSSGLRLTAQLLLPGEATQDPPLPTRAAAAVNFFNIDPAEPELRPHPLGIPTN

Ki [nM] | SMILES
26 | CN1CCc2ccc(N3C(=O)CSC34C(=O)Nc3ccccc34)cc2CC1 (racemic)
15 | CN1CCc2ccc(N3C(=O)CSC34C(=O)Nc3ccccc34)cc2CC1 (single isomer, unassigned)
